# Results as given in patent publication US20260327263A1, “Anti-Bacterial Peptides” (priority 2023, published 2026).
# Values joined by “and” are separate entries in the source; they are usually repeats but may differ in a detail not shown here. Equal entries are not always repeated. “Also recorded” adds a separate entry of the source. Where no end group is shown, it is not given here.
# Key:
# [1] = tested on: Pseudomonas aeruginosa (PA); assay: Broth microdilution anti-bacterial assay (CLSI), Pseudomonas aeruginosa; type: cell-based, Pseudomonas aeruginosa (ATCC 14213); details: for anti-bacterial activity (in words): PA and SA; for MIC / MBC: PA; for MIC: overnight, 37° C., ≥99% inhibition; for MBC: ≥99% killing
# Description: (§1) To evaluate their anti-bacterial potency, broth microdilution method as per the CLSI guidelines 1 was used. […] The anti-bacterial potency of the tested agents is quantified using minimum inhibitory concentration (MIC) and minimum bactericidal concentration (MBC). […] To obtain the MBC data, 1X, 2X and 4× MIC of the peptide variants were plated to obtain the number of viable colonies compared to the original inoculum.
# (§2) Pseudomonas aeruginosa (ATCC 14213, PA), and methicillin resistant Staphylococcus aureus (BAA1717-USA 300, SA) were obtained from The American Type Culture Collection (ATCC).
# (§3) Examination of the potency of modified short peptides against PA and SA strains was performed by using the broth microdilution protocol from the Clinical and Laboratory Standards Institute (CLSI) guidelines (CLSI 2012) as described. Briefly, five freshly plated bacteria colonies were grown in cation adjusted MH2 broth (BD Biosciences) in a shaker incubator at 37° C., 220 RPM. Cells were grown to an optical density (OD600) of ~0.2 measured using a Microplate Spectrophotometer (Molecular Devices Spectra Max Plus). 100 μL of microbial culture containing ~5×10^5 CFU/mL of bacteria in the respective broths were introduced into each well containing 100 μL of peptides and incubated overnight at 37° C. Next, to check the bactericidal effects, 100 μL from each well was transferred and spread on sterile MH2 agar plates. The plates were incubated overnight at 37° C. and the number of colonies forming units (CFU) were calculated the following day. Readings of bacteria grown in media without any treatments were normalized to 100% as media control. For the mixed infection study, three freshly plated bacteria colonies each from PA, SA and ST plates were grown together in cation adjusted MH2 broth and proceeded as described above.
# [2] = tested on: Staphylococcus aureus (SA); assay: Broth microdilution anti-bacterial assay (CLSI), Staphylococcus aureus; type: cell-based; details: SA; for MIC: overnight, 37° C., ≥99% inhibition; for MBC: ≥99% killing
# Description: as §1, §2, §3
# [3] = tested on: Pseudomonas aeruginosa (PA); assay: Time-kill assay, Pseudomonas aeruginosa; type: cell-based; details: for time to kill PA (in words): 1X MBC; for Time kill PA, >99% killing: at 1X MBC, * indicates killing within seconds
# Description: (§4) The bactericidal abilities of the variant peptides are not only effective, but also fast-acting. […] The killing kinetics are detailed in Table 11 below.
# (§5) Pseudomonas aeruginosa (PA) and Staphylococcus aureus (SA) strains were grown as per CLSI guidelines. AMPs were added to the bacterial cultures at their 1X MBC concentrations. Upon treatment, the bacterial cultures were enumerated for viable counts immediately within 1 min, 5 min, 15 min, 30 min and 60 min post-treatments.
# [4] = tested on: Staphylococcus aureus (SA); assay: Time-kill assay, Staphylococcus aureus; type: cell-based; details: for time to kill SA (in words): 1X MBC; for Time kill SA, >99% killing: at 1X MBC, * indicates killing within seconds
# Description: as §4, §5
# [5] = tested on: Pseudomonas aeruginosa PA BAA-2110; assay: Broth microdilution, PA BAA-2110 (lung infection in cystic fibrosis); type: cell-based, Pseudomonas aeruginosa (BAA-2110); details: PA BAA-2110
# Description: (§6) Bacteria strains involved in lung infection in cystic fibrosis patients (PA-BAA 2110) and ear-eye infections (PA-CRM 9027) are treated with exemplary variant peptides, such as E1AM2 and Q19L.
# as §3
# [6] = tested on: Pseudomonas aeruginosa PA CRM-9027; assay: Broth microdilution, PA CRM-9027 (ear-eye infections); type: cell-based, Pseudomonas aeruginosa (CRM-9027); details: PA CRM-9027
# Description: as §6, §3
# [7] = tested on: Pseudomonas aeruginosa (PA); assay: Antimicrobial resistance evolution assay, PA; type: cell-based; details: for development of antimicrobial resistance, PA: serial passaging, 28 days, resistance = >4-fold MIC change
# Source text: (§7) The development of antimicrobial resistance is defined by greater than a 4-fold change to their initial minimum inhibitory concentration (MIC) at day 1. Exemplary bacteria strains Pseudomonas aeruginosa (PA) and Staphylococcus aureus (SA) are subjected to continuous daily serial passaging over several days, with treatment of exemplary variant peptides E1AM2 (SEQ ID NO: 2) and Q19L (SEQ ID NO: […]) at subinhibitory concentrations. […] The treatments were discontinued when the MIC increased by more than four-fold from the initial MIC or when MIC reached >100 μM.
# (§8) Briefly, sequential passaging of PA, and SA cells was done with sub-inhibitory concentrations of antibiotics or E1AM2 up to 4 weeks. The cells grown in those concentrations of antibiotics or peptides were diluted to A600 nm (OD600) of ~0.2 and serially passaged daily with the same concentrations at 37° C. with agitation at 24 h intervals.
# [8] = tested on: Staphylococcus aureus (SA); assay: Antimicrobial resistance evolution assay, SA; type: cell-based; details: serial passaging; resistance = >4-fold MIC change
# Source text: as §7, §8
# [9] = tested on: human keratinocytes; assay: 2D scratch assay, keratinocyte migration; type: cell-based; details: for migration speed of keratinocytes: 48 h, E1AM2 3.125-12.5 μM, Q19L 3.125-6.25 μM
# Description: Wound healing is directly associated with the migration speed of keratinocytes. The migration speed of human keratinocytes in presence of E1AM2, V8L (SEQ ID NO: 19), and Q19L variants is tested in comparison with pexiganan (SEQ ID NO: 54). Migration speed of human keratinocytes assessed in a 2D scratch assay at D 0 and D 2 timepoints. Decrease in wound area over time was measured by applying an ImageJ plugin ‘Wound Healing Size Tool’ on bright-field images. The change in wound area over the course of 48 hours was used as a measure of the migration speed of keratinocytes. Each value is the mean±SD (n=3). The p-value was calculated using ANOVA for multiple comparisons (Dunnett's multiple comparisons test). **** p<0.0001. *** p<0.001. ** p <0.01. * p<0.05. […] Both peptides healed wound faster within their respective MIC and MBC concentrations. […] SEQ ID NO: 27=Q19L; SEQ ID NO: 2=E1AM2; SEQ ID NO: 19=V8L.
# (§9) Wound closure was compared with the untreated samples (circle, red highlight). For improved clarity, error bars have been omitted from this representation. […] Each value is the mean±SD (n=3). Statistical significance was assessed using ANOVA for multiple comparisons (Dunnett's multiple comparisons test). **** p<0.0001, *** p<0.001, ** p<0.01, *p<0.05, ns denotes nonsignificance, p >0.05.
# Wound areas of the human keratinocyte culture were assessed in presence of peptides in a 2D scratch assay at the 0 hour, and 48-hour time points by applying an ImageJ plugin, ‘Wound Healing Size Tool’ on brightfield images. Quantification of wound width was calculated by obtaining the averaged Euclidean distance between each paired pixel at the lateral wound edges. The change in wound area over the course of 48 hours was used as a measure of the migration speed of keratinocytes.
# Using the inverted BioTek Lionheart LX Automated Microscope, brightfield images were obtained at 4× magnification to observe the wound area at timepoints 0 (before treatment) and 48 hours-post treatment. Microscopy settings were maintained as focus offset (781.3 μm), illumination (2), integration Time (21) with no gain. To cover the entire well, montage images of four rows by three columns were stitched together by enabling the “image stitching” function and images were saved in tiff-format.
# [10] = tested on: mixed bacterial infection (PA, SA and ST); assay: Broth microdilution, mixed bacterial infection; type: cell-based; details: mixed infection
# Description: Chronic wounds mostly present mixed infections where numerous pathogens colonize together.
# as §3
# [11] = tested on: human red blood cells (hRBCs); assay: Hemolysis assay; type: cell-based; details: hRBCs; for minimum concentration corresponding to 10% hemolysis (HC): 37° C., 30 min; for hemolysis (in words): FIG. 8 up to 100 μM
# Description: (§10) The hemolytic score of the peptide variants and pexiganan (SEQ ID NO: 54) are compared to a strong hemolytic peptide, melittin 12 as a control. […] The minimum peptide concentration corresponding to 10% hemolysis (minimal hemolysis concentration, HC) of E1AM2=50 μM, V8LQ19L=12.5 μM, V8LQ19L C-2=3.125 μM, and pexiganan=12.5 μM respectively. Readings of the melittin at 3.125 μM were normalised to 100%.
# (§11) Examination of hemolytic activity of ultra-short peptides was performed by isolating the red blood cells (RBCs) from human blood samples by centrifugation (1000 g, 4° C., 10 min) and resuspension in 27 mL PBS. This washing step was repeated four times before the RBCs were diluted to a 10% (v/v) suspension. […] Hemolytic properties of E1AM2 and pexiganan were evaluated with melittin used as a positive control, and PBS as a negative control. The plates were incubated at 37° C., for 30 min and then centrifuged (1258 g, 4° C., 6 min). 75 μL of supernatant were transferred into a flat-bottom clear 96-well plate and the OD576 nm was read. Readings of the melittin sample at 3.125 μM were normalized to 100%.
# [12] = tested on: human keratinocytes (HaCaT); assay: Cell proliferation assay, HaCaT keratinocytes; type: cell-based
# Description: as §9
# CyQUANT™ Direct Cell Proliferation Assay (ThermoFisher Scientific, Catalogue) was performed as per manufacturer's instructions to determine the safety of the peptides to human keratinocytes. […] The fluorescence intensity and number of stained cells were determined using the LionHeart FX Automated Microscope (BioTek, VT, USA).
# [13] = tested on: fibroblasts (HFF-1); assay: Cell proliferation assay, HFF-1 fibroblasts; type: cell-based; details: 24 h
# [14] = Comparison of AMPs in clinical trial with V8LQ19L (Table 13); details: ✓ / X
# [15] = Hemolysis assay; type: cell-based, human; details: human, red blood cells; at respective MIC/MBC concentrations; melittin 3.125 μM = 100%
# Description: as §10, §11
Compound,anti-bacterial activity (in words) [1],MIC [1],MBC [1],MIC [2],MBC [2],time to kill PA (in words) [3],"Time kill PA, >99% killing [3]",time to kill SA (in words) [4],"Time kill SA, >99% killing [4]",MBC [5],MIC [5],MBC [6],MIC [6],"development of antimicrobial resistance, PA [7]",migration speed of keratinocytes [9],minimum concentration corresponding to 10% hemolysis (HC) [11],hemolysis (in words) [11],also measured
KKLLKKWVKLSKKALKLALSL-NH2 [Q19L],reduction in the minimum inhibitory concentration (MIC) and minimum bactericidal concentration (MBC) values,3.125 µM,3.125 µM and 6.25 µM,3.125 µM,3.125 µM,within minutes,>1.5 min,within minutes,1 min,6.25 µM,6.25 µM,6.25 µM,6.25 µM,prevented resistance acquisition,increase keratinocyte migration; also recorded: increased the migration speed of keratinocytes significantly,,,"development of antimicrobial resistance, SA [8]: prevented resistance development; migration delay of keratinocytes ([9]; only at highest concentrations (100 μM)): significant migration delay"
"GIGKFLKKAKKFGKAFVKILKK-NH2 [Pexiganan, reference compound]",,3.125 µM,6.25 µM,6.25 µM and 6.12 µM,12.5 µM,took the longest time to kill >99% PA,>5 to 15 min,,1 min,6.25 µM,3.125 µM,3.125 µM,3.125 µM,developed resistance,,12.5 µM,none of the peptide variants or pexiganan caused significant hemolysis,"MIC ([1]; listed as PEX): 3.128 µM and 3.125 µM; MBC ([1]; listed as PEX): 6.25 µM and 8.25 µM; MIC/MBC relative to E1AM2, SA [2]: two-higher value; MIC ([2]; listed as PEX): 6.25 µM and 6.26 µM; MBC ([2]; listed as PEX): 12.8 µM and 12.5 µM and 12.6 µM; MBC [10]: 12.5 µM; MIC [10]: 6.25 µM; AMR prevention / resistance induction ([7]; Table 15: in PA and SA, bacteria not named): Gives rise to AMR; Cytotoxicity at high concentration (100 μM) ([12]; 100 μM, cell line not named in Table 15): Cytotoxic; HFF-1 proliferation ([13]; certain concentrations): enhanced proliferation; Broad spectrum activity [14]: ✓; Healing support [14]: ✓"
KKLLKKWLKLSKKALKLAL-NH2 [V8LQ19L C-2],strong potency,1.56 µM,1.56 µM,1.56 µM,1.56 µM,,,,,,,,,,,3.125 µM,do not cause hemolysis,hemolysis at 0.5 h [15]: ~0%
"OO [H2O2, hydrogen peroxide, reference compound]",,,,,,,,,,,,,,,,,,"cytotoxicity to HaCaT ([12]; 24 h, up to highest tested concentrations (peptide), 3% (H2O2)): significant cytotoxicity; cytotoxicity to HFF-1 ([13]; up to highest tested concentrations (peptide), 3% (H2O2)): significant cytotoxicity"
KKLLKKWLKLSKKALKLAQSL-NH2 [V8L],reduction in the minimum inhibitory concentration (MIC) and minimum bactericidal concentration (MBC) values,3.125 µM,3.125 µM,3.125 µM,3.125 µM,within minutes,1* min,within minutes,>30 to 60 min,,,,,,maintained keratinocyte migration speed,,,
